These results are taken from PubChem BioAssay (NCI).

Test systems include SF-268 CNS; EKVX NSCLC; NCI-H23 lung; A498 renal; ACHN renal; KM12 colon; HT29 colon; PC-3 prostate; MCF7 breast; MDA-N; HS 578T breast.
Common to all, as to experiment: NCI tumour cell line growth inhibition, 48 h

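Each compound was tested at five concentrations against cells in 96-well plates for 48 hours. TGI is the concentration that stops growth completely.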

As for `COc1ccc(N2C(=O)c3c(c4[nH]c5ccccc5c4c4ccc(C(C)(C)C)cc34)C2=O)cc1`, the TGI with SF-268 CNS is 74.4 µM; with EKVX NSCLC it was > 100 µM; in the assay with NCI-H23 lung it was 51 µM; in the assay with A498 renal, 77.1 µM; in the assay with ACHN renal, > 100 µM; in the assay with KM12 colon, > 100 µM.

Take `O=C(Cc1ccccc1)NN1C(=O)C(Cl)C1c1ccccc1Cl` (stereo not drawn): the TGI in the assay with HT29 colon, in the assay on SF-268 CNS, in the assay on EKVX NSCLC, in the assay on NCI-H23 lung, in the assay with A498 renal and with ACHN renal was > 100 µM each time. The TGI with KM12 colon was > 100 µM.

Take `COc1ccc(C2=Nc3c(nc(OC)[nH]c3=O)NC(c3ccccc3)C2)cc1` (stereo not drawn): the TGI in the assay on HT29 colon is > 100 µM; in the assay with PC-3 prostate, > 100 µM; with EKVX NSCLC, > 100 µM; in the assay on NCI-H23 lung, > 100 µM; with A498 renal, > 100 µM; with MCF7 breast, 68.2 µM. The TGI in the assay with ACHN renal amounted to 83.5 µM; in the assay on MDA-N it was 64.5 µM; in the assay with KM12 colon, 36.3 µM.

Turning to `C=CCCC1(O)C(O)C(CO)O[C@H](O[C@@]2(CO)OC(CO)C(O)C2O)C1O` (stereo partly drawn), the TGI in the assay with HT29 colon, with PC-3 prostate, in the assay on SF-268 CNS, with EKVX NSCLC, in the assay on NCI-H23 lung and in the assay with MCF7 breast was > 100 µM in each case. Moreover, the TGI with ACHN renal and in the assay on KM12 colon was > 100 µM each time.

For the compound `CC(C)c1cccc(C(C)C)c1NC(=O)C(=O)Cc1nc2ccc([N+](=O)[O-])cc2[nH]c1=O`, the TGI in the assay with HT29 colon is > 100 µM; in the assay with EKVX NSCLC it was > 100 µM; with NCI-H23 lung, > 100 µM; with A498 renal, > 100 µM; in the assay on ACHN renal it was > 100 µM; with KM12 colon, 28.7 µM.

Take `Cc1c(C)c2c(c(N)c1C#N)C(=O)N(O)C2=O`: the TGI in the assay on HT29 colon, with PC-3 prostate, in the assay with SF-268 CNS, in the assay with EKVX NSCLC, in the assay on NCI-H23 lung and in the assay on A498 renal was > 100 µM throughout. The TGI in the assay on MCF7 breast, with HS 578T breast, with ACHN renal and in the assay on KM12 colon was > 100 µM each time.

For `COc1cc2ccc3c4ccccc4cnc3c2cc1OC`, the TGI in the assay with HT29 colon, with SF-268 CNS, in the assay on EKVX NSCLC, with NCI-H23 lung, in the assay on ACHN renal and in the assay on KM12 colon was > 100 µM throughout.

Turning to `COC(=O)C(=O)C(C(=O)OC)C(=O)C(=O)Nc1c(C)cccc1C` (stereo not drawn), the TGI in the assay on HT29 colon, with SF-268 CNS, in the assay with EKVX NSCLC, in the assay with NCI-H23 lung, with A498 renal and with ACHN renal was > 100 µM throughout. Besides, the TGI with KM12 colon was > 100 µM.

On to `CCCCOCCOCCOC1=CC(=O)c2c(O)ccc(O)c2C1=O`, for which the TGI in the assay on PC-3 prostate was 7.53 µM; in the assay with SF-268 CNS it was > 10 µM; in the assay on EKVX NSCLC, > 10 µM; with NCI-H23 lung it was 3.32 µM; with MCF7 breast, 4.01 µM; in the assay with HS 578T breast, 6.5 µM. The values for the TGI in the assay with ACHN renal, in the assay on MDA-N and with KM12 colon were 3.2 µM, 0.329 µM and 3.3 µM, respectively.

For the compound `CN(C)CCN(C)P12(Oc3ccccc3O1)Oc1c(Cl)c(Cl)c(Cl)c(Cl)c1O2`, the TGI with HT29 colon, with PC-3 prostate, with SF-268 CNS, with EKVX NSCLC, in the assay with NCI-H23 lung and in the assay with A498 renal was > 100 µM throughout. For the same compound, the TGI with MCF7 breast, with ACHN renal and in the assay with MDA-N was > 100 µM in each case.

Consider `O=C(O)c1nc2ccccc2nc1Nc1ccc(Cl)c(Cl)c1`, for which the TGI with PC-3 prostate was > 100 µM; with SF-268 CNS, > 100 µM; in the assay on EKVX NSCLC it was > 100 µM; in the assay on NCI-H23 lung, 50.1 µM; with A498 renal, 41.6 µM; in the assay with ACHN renal, > 100 µM. Also, the TGI with MDA-N was > 100 µM; in the assay on KM12 colon, 54 µM.

Take `Cc1ccc(S(=O)c2cccs2)cc1` (stereo not drawn): the TGI with HT29 colon, in the assay with PC-3 prostate, in the assay with SF-268 CNS, in the assay on EKVX NSCLC, in the assay with NCI-H23 lung and in the assay with A498 renal was > 100 µM in each case. Also, the TGI with MCF7 breast, with ACHN renal, in the assay on MDA-N and in the assay with KM12 colon was > 100 µM in each case.

For `C[C@]12C=CC(=O)C=C1CC[C@@H]1[C@@H]2CC[C@@]2(C)[C@H]1CC[C@]2(O)C(N)=O`, the TGI with HT29 colon, in the assay on PC-3 prostate, with SF-268 CNS, in the assay on EKVX NSCLC, with NCI-H23 lung and in the assay on A498 renal was > 100 µM in each case. The TGI in the assay on HS 578T breast, with ACHN renal, in the assay with MDA-N and in the assay on KM12 colon was > 100 µM in each case.

Take `CO/C(N)=C(\C#N)N=Cc1ccc2ccccc2c1`: the TGI in the assay with HT29 colon, in the assay on PC-3 prostate, with SF-268 CNS, with EKVX NSCLC, in the assay with NCI-H23 lung and with A498 renal was > 100 µM each time. The TGI in the assay on HS 578T breast, in the assay on ACHN renal, with MDA-N and in the assay with KM12 colon was > 100 µM each time.

For the compound `Nc1nc2c(N)cc(C(F)(F)F)cc2nc1-c1ccccc1`, the TGI in the assay on SF-268 CNS, in the assay with EKVX NSCLC, with NCI-H23 lung, with A498 renal, in the assay on ACHN renal and in the assay on KM12 colon was > 100 µM each time.

In the case of `COC(=O)C1CC2C=CC=CC(=O)C2(C)C1` (stereo not drawn), the TGI in the assay with HT29 colon, in the assay on SF-268 CNS, in the assay on EKVX NSCLC, in the assay on NCI-H23 lung, in the assay on A498 renal and with ACHN renal was > 100 µM each time. For the same compound, the TGI in the assay with KM12 colon is > 100 µM.
